Earlier results as cited in patent US8580861B2, “Chemical composition for skin care formulations” (Pibed Limited, priority 2008, dated 2013).
Read-outs that look alike come from different tables or passages of the source.

Tests used:
Staphylococcus aureus = details: low concentrations (0.5 to 2 mM), disk diffusion
Lactobacillus fermentum = details: flow cytometry
Microsporum gypseum [1] = details: M. gypseum
Microsporum gypseum [2] = details: 10% in Vaseline petroleum jelly, topical, daily for 3 weeks; for histopathologic examination of skin tissues: versus positive control

SMILES | susceptibility to ciprofloxacin, clindamycin, erythromycin, gentamicin, tetracycline, and vancomycin (Staphylococcus aureus) | intracellular accumulation of ethidium bromide by live cells (Lactobacillus fermentum) | MIC (Microsporum gypseum [1]; positive control) | MIC (Microsporum gypseum [1]) | skin lesion scoring (Microsporum gypseum [2]) | histopathologic examination of skin tissues (Microsporum gypseum [2]) | sensitization to polymyxin B (Escherichia coli) | hair culture test (Microsporum gypseum [2])
CC(C)=CCC/C(C)=C/CC1CCCC1=O (centres unmarked) [apritone] | enhanced the susceptibility of Staphylococcus aureus | promoted the intracellular accumulation |  |  |  |  |  | 
CC(C)=CCC[C@](C)(O)C1CC=C(C)CC1 (some centres unmarked) [bisabolol] | enhanced the susceptibility of Staphylococcus aureus | promoted the intracellular accumulation |  |  |  |  |  | 
Clc1ccc(COC(Cn2ccnc2)c2ccc(Cl)cc2Cl)cc1 (centres unmarked) [econazole] |  |  | 4 to 16 µg/mL |  |  |  |  | 
C=CCc1ccc(O)c(OC)c1 [eugenol] |  |  |  | 0.01-0.03% | clinically effective at improving the lesion during the first week of application | lower degree of hyperkeratosis and inflammatory cell infiltration than the positive control |  | 
CC(C)=CCCC(C)=CCCC(C)=CCO [farnesol] |  | promoted the intracellular accumulation |  |  |  |  | sensitized Escherichia coli to polymyxin B | 
C=CC(C)(O)CCC=C(C)CCC=C(C)C (centres unmarked) [nerolidol, 3,7,11-trimethyl1,6,10-dodecatrien-3-ol] | enhanced the susceptibility of Staphylococcus aureus | promoted the intracellular accumulation |  | 0.5-2% | clinically effective at improving the lesion during the first week of application | lower degree of hyperkeratosis and inflammatory cell infiltration than the positive control | sensitized Escherichia coli to polymyxin B | improved the skin lesions infected by M. gypseum
